Experimental data as given in US20250326718A1, “4-PHENYL-2-PYRROLIDINONES AND METHODS OF USING THEREOF” (North Carolina State University, priority 2022, published 2025).
In brackets after ≈: the same amount, converted by molar mass. Read-outs that look alike come from different tables or passages of the source.

Tests used:
Assay type in all cases: cell-based
[1] = test system: MRSA (ATCC BAA 44) biofilm; test: Inhibition of MRSA biofilm formation (crystal violet); details: Staphylococcus aureus, 24 h, Table 1
Protocol: (§1) General information—Biological Assays. Methicillin-resistant and methicillin sensitive Staphylococcus aureus (MRSA and MSSA respectively) strains were obtained from the Laboratory of Professor Christian Melander (NCSU) (ATCC BAA 44 and 33591) and Dr. Jessica Gilbertie (ATCC 25923). Bacteria were kept in frozen stocks on glycerol at −80° C. until use. Bacteria was streaked onto tryptic-soy agar for colony isolation. Mueller-Hinton broth (MHB, 211443-BD), tryptic soy broth (TSB, Remel: R455052) and D-glucose (CAS: 492-62-6) were purchased from Fisher Scientific. Tryptic soy agar (TSA, cat. #22091) and Linezolid (cat. #P70014) were purchased from Sigma-Aldrich. Bacteria for biofilm inhibition were cultured overnight in TSB-G (tryptic soy broth with 0.5% glucose supplement) in 96 well plates. All assays were run in duplicate and repeated at least two separate times for MIC assays and at least three separate times for biofilm inhibition. All compounds were dissolved in molecular biology grade DMSO as 10 mM stock solutions. Optical densities were measured using a Thermo Scientific Genesys 20 spectrophotometer. Data for biofilm inhibition were collected using a BioTek ELx808 Microplate Reader. All graphs were generated and analyzed using GraphPad Prism 7.
Determination of the inhibitory effect of test compounds on MRSA biofilm formation. Inhibition assays were performed using a procedure adapted from S. A. Rogers and C. Melander, Angew. Chem. Int. Ed., 2008, 47, 5229-5231, which is hereby incorporated herein by reference. Briefly, the inhibition assays were performed by subculturing an overnight culture of MRSA (ATCC BAA 44) to an OD600 of 0.01 in TSB-G (tryptic soy broth with a 0.5% glucose supplement). Stock solutions of predetermined concentrations of the test compound were then made using the inoculated TSB-G. These stock solutions were aliquoted (100 μL) into the wells of the 96-well microtiter plate. Sample plates were sealed then incubated for 24 h at 37° C. After incubation, the medium was discarded from the wells and the plates were washed 2× with PBS. Prior to staining, plates were left to dry at ambient temperature for 2-3 h. Plates were then stained with 0.1% solution of crystal violet (CV, 125 μL) and then incubated at ambient temperature for 30 min. Plates were washed with PBS again and the remaining stain was solubilized with 99% ethanol (200 μL). A sample of solubilized CV stain (110 μL) from each well was transferred to the corresponding wells of a polystyrene microtiter dish. Biofilm biomass was quantified by measuring the OD540 of each well and inhibition was calculated as a percentage of the control (no compound); a negative control lane wherein no biofilm was formed served as a background and was subtracted out. Percent inhibition was then plotted against concentration in Prism 7. Each of the four experiments were plotted separately and S15 analyzed by a normalized nonlinear regression. The graphs on the following pages were generated from an average of the total data set. Biofilm data represent four separate experiments, with each experiment performed in duplicate (average of 8 data points for each concentration tested, unless otherwise noted).

MRSA (ATCC 33591) = test: Broth microdilution MIC, MRSA ATCC 33591; details: Staphylococcus aureus
Protocol: as §1
Broth microdilution method for determination of minimum inhibitory concentrations. As prescribed by the Clinical and Laboratory Standards Institute (CLSI) M07-A8, Vol. 29 (2) MSSA (ATCC 25923) and MRSA (ATCC BAA 44 and 33591) was grown in MHB for 6-8 h; this culture was used to inoculate fresh MHB (5×10^5 CFU/mL). The resulting bacterial suspension was aliquoted (1 mL) into 1.5 mL Eppendorf tubes and compound was added from a 10 mM DMSO stock to achieve the desired initial starting concentration (typically 128 μg/mL). Linezolid (from a 10 mM DMSO stock) was used as a positive control. Inoculated media not treated with compound served as the negative control. The MIC was determined by microbroth dilution following the CLSI guidelines. The MIC was defined as the lowest concentration of antibiotic with no visible growth. The plate was sealed and incubated under stationary conditions at 37° C.
The antimicrobial activity of Compounds 1-15 was assessed initially against MSSA (ATCC 25923) and MRSA (ATCC 33591) strains. It was observed that almost all these compounds precipitated in aqueous solution at concentrations equal or higher than 8-16 μg/mL. In order to obtain preliminary results on the antimicrobial activity for these compounds, the standard conditions of the antimicrobial assays used where modified to favor the water solubility of these compounds.

S. aureus 29213 = test: Broth microdilution MIC, S. aureus 29213; details: Staphylococcus aureus
MSSA (ATCC 25923) = test: Broth microdilution MIC, MSSA ATCC 25923; details: Staphylococcus aureus; Tables 2-4; standardized conditions; read-out: MIC (S. aureus 25923)
[2] = Table 1, Compounds 1-15, preliminary data, modified non-standard conditions (pH 9), solubility-limited
[3] = Tables 3-4, standardized conditions, read-out: MIC (S. aureus 29213)
[4] = Tables 2-4, standardized conditions
[5] = Table 2, standardized conditions, read-out: MIC (S. aureus 25913)

Row | Compound | MIC (MRSA (ATCC 33591); [2]) | MIC (S. aureus 29213; [3]) | MIC (MSSA (ATCC 25923)) | MIC (MRSA (ATCC 33591); [4]) | MIC (S. aureus 29213; [5]) | inhibition at 5 µM [1] | inhibition at 40 µM [1]
1 | CCCCCN1C(=O)C(O)=C(c2ccc(C(F)(F)F)cc2)C1CC (stereo not drawn) [Compound 11, 5-Ethyl-3-hydroxy-1-pentyl-4-(4-(trifluoromethyl)phenyl)-1,5-dihydro-2H-pyrrol-2-one] | 16 µg/mL (≈ 46.9 µM) |  |  |  |  | 58% | 63%
2 | O=C1C(O)=C(c2ccc(C(F)(F)F)cc2)C(C2CC2)N1c1ccc(Br)cc1 (stereo not drawn) [Compound 43, 1-(4-Bromophenyl)-5-cyclopropyl-3-hydroxy-4-(4-(trifluoromethyl)phenyl)-1,5-dihydro-2H-pyrrol-2-one] |  | > 128 µg/mL | > 128 µg/mL | 64 µg/mL (≈ 146 µM) |  |  | 
3 | O=C1C(O)=C(c2ccc(C(F)(F)F)cc2)C([C@H](O)c2ccccc2)N1c1ccccc1 (stereo partly drawn) [Compound 51, 3-Hydroxy-5-((R)-hydroxy(phenyl)methyl)-1-phenyl-4-(4-(trifluoromethyl)phenyl)-1,5-dihydro-2H-pyrrol-2-one] |  | 32 µg/mL (≈ 75.2 µM) | 64 µg/mL (≈ 150 µM) | 32 µg/mL (≈ 75.2 µM) |  |  | 
4 | CCC1C(c2ccc(C(F)(F)F)cc2)=C(O)C(=O)N1CCN1C(=O)C(O)=C(c2ccc(C(F)(F)F)cc2)C1CC (stereo not drawn) [Compound 25, 1,1′-(Ethane-1,2-diyl)bis(5-ethyl-3-hydroxy-4-(4-(trifluoromethyl)phenyl)-1,5-dihydro-2H-pyrrol-2-one)] |  |  | > 128 µg/mL | > 128 µg/mL | > 128 µg/mL |  | 
5 | CCC1C(c2ccc(C(F)(F)F)cc2)=C(O)C(=O)N1C1CCC(N)CC1 (stereo not drawn) [Compound 19, 1-((1r,4r)-4-Aminocyclohexyl)-5-ethyl-3-hydroxy-4-(4-(trifluoromethyl)phenyl)-1,5-dihydro-2H-pyrrol-2-one] |  |  | 64 µg/mL (≈ 174 µM) | 128 µg/mL (≈ 347 µM) | 128 µg/mL (≈ 347 µM) |  | 
6 | CCC1C(c2ccc(C(F)(F)F)cc2)=C(O)C(=O)N1CCCCNCCCN1C(=O)C(O)=C(c2ccc(C(F)(F)F)cc2)C1CC (stereo not drawn) [Compound 32, 5-Ethyl-1-(3-((4-(2-ethyl-4-hydroxy-5-oxo-3-(4-(trifluoromethyl)phenyl)-2,5-dihydro-1H-pyrrol-1-yl)butyl)amino)propyl)-3-hydroxy-4-(4-(trifluoromethyl)phenyl)-1,5-dihydro-2H-pyrrol-2-one] |  |  | 8 µg/mL (≈ 12.2 µM) | 64 µg/mL (≈ 97.9 µM) | 64 µg/mL (≈ 97.9 µM) |  | 
7 | CCC1C(c2ccc(C(F)(F)F)cc2)=C(O)C(=O)N1CCCNCCCCN (stereo not drawn) [Compound 23, 1-(3-((4-Aminobutyl)amino)propyl)-5-ethyl-3-hydroxy-4-(4-(trifluoromethyl)phenyl)-1,5-dihydro-2H-pyrrol-2-one] |  |  | 16 µg/mL (≈ 40.1 µM) | 32 to 64 µg/mL (≈ 80.1 to 160 µM) | 64 µg/mL (≈ 160 µM) |  | 
8 | O=C1C(O)=C(c2ccc(C(F)(F)F)cc2)C(C(O)CO)N1c1ccc(Br)cc1 (stereo not drawn) [Compound 49, 1-(4-Bromophenyl)-5-(1,2-dihydroxyethyl)-3-hydroxy-4-(4-(trifluoromethyl)phenyl)-1,5-dihydro-2H-pyrrol-2-one] |  | > 128 µg/mL | > 128 µg/mL | > 128 µg/mL |  |  | 
9 | O=C1C(O)=C(c2ccc(C(F)(F)F)cc2)C(CCl)N1c1ccc(Br)cc1 (stereo not drawn) [Compound 44, 1-(4-Bromophenyl)-5-(chloromethyl)-3-hydroxy-4-(4-(trifluoromethyl)phenyl)-1,5-dihydro-2H-pyrrol-2-one] |  | 128 µg/mL (≈ 287 µM) | 64 µg/mL (≈ 143 µM) | 64 µg/mL (≈ 143 µM) |  |  | 

Continued, in another order:

Row | MIC (MRSA (ATCC 33591); [2]) | MIC (S. aureus 29213; [3]) | MIC (MSSA (ATCC 25923)) | MIC (MRSA (ATCC 33591); [4]) | MIC (S. aureus 29213; [5]) | Compound | inhibition at 5 µM [1] | inhibition at 40 µM [1]
10 | 32 µg/mL (≈ 75.1 µM) |  |  |  |  | CCC1C(c2ccc(C(F)(F)F)cc2)=C(O)C(=O)N1c1ccc(Br)cc1 (stereo not drawn) [Compound 3, 1-(4-Bromophenyl)-5-ethyl-3-hydroxy-4-(4-(trifluoromethyl)phenyl)-1,5-dihydro-2H-pyrrol-2-one] | 34% | 72%
11 | > 128 µg/mL |  |  |  |  | CCC1C(c2ccc(C(F)(F)F)cc2)=C(O)C(=O)N1CCC(C)C (stereo not drawn) [Compound 14, 5-Ethyl-3-hydroxy-1-isopentyl-4-(4-(trifluoromethyl)phenyl)-1,5-dihydro-2H-pyrrol-2-one] | 47% | 43%
12 |  | 2 µg/mL (≈ 4.05 µM) | 2 µg/mL (≈ 4.05 µM) | 2 µg/mL (≈ 4.05 µM) |  | O=C1C(O)=C(c2ccc(C(F)(F)F)cc2)C([C@H](O)c2ccccc2)N1c1ccc(C(F)(F)F)cc1 (stereo partly drawn) [Compound 56, 3-Hydroxy-5-((R)-hydroxy(phenyl)methyl)-1,4-bis(4-(trifluoromethyl)phenyl)-1,5-dihydro-2H-pyrrol-2-one] |  | 
13 |  | > 128 µg/mL | > 128 µg/mL | > 128 µg/mL |  | CCCCCCN1C(=O)C(O)=C(c2ccc(C(F)(F)F)cc2)C1[C@H](O)c1ccccc1 (stereo partly drawn) [Compound 50, 1-Hexyl-3-hydroxy-5-((R)-hydroxy(phenyl)methyl)-4-(4-(trifluoromethyl)phenyl)-1,5-dihydro-2H-pyrrol-2-one] |  | 
14 |  |  | 128 µg/mL (≈ 407 µM) | > 128 µg/mL | 128 µg/mL (≈ 407 µM) | CCC1C(c2ccc(C(F)(F)F)cc2)=C(O)C(=O)N1CCN (stereo not drawn) [Compound 16, 1-(2-Aminoethyl)-5-ethyl-3-hydroxy-4-(4-(trifluoromethyl)phenyl)-1,5-dihydro-2H-pyrrol-2-one] |  | 
15 |  | 64 µg/mL (≈ 97.8 µM) | 64 µg/mL (≈ 97.8 µM) | 64 µg/mL (≈ 97.8 µM) |  | CCC1C(c2ccc(C(F)(F)F)cc2)=C(O)C(=O)N1CCN(CCN)CCN1C(=O)C(O)=C(c2ccc(C(F)(F)F)cc2)C1CC (stereo not drawn) [Compound 39, 1,1′-(((2-aminoethyl)azanediyl)bis(ethane-2,1-diyl))bis(5-ethyl-3-hydroxy-4-(4-(trifluoromethyl)phenyl)-1,5-dihydro-2H-pyrrol-2-one)] |  | 
16 |  |  | > 128 µg/mL | 64 µg/mL (≈ 177 µM) | > 128 µg/mL | CCC1C(c2ccc(C(F)(F)F)cc2)=C(O)C(=O)N1c1ccc(N)cc1 (stereo not drawn) [Compound 20, 1-(4-Aminophenyl)-5-ethyl-3-hydroxy-4-(4-(trifluoromethyl)phenyl)-1,5-dihydro-2H-pyrrol-2-one] |  | 
17 |  | 4 µg/mL (≈ 8.7 µM) | 4 µg/mL (≈ 8.7 µM) | 4 to 8 µg/mL (≈ 8.7 to 17.4 µM) |  | O=C1C(O)=C(c2ccc(C(F)(F)F)cc2)C([C@H](O)c2ccccc2)N1c1ccc(Cl)cc1 (stereo partly drawn) [Compound 54, 1-(4-Chlorophenyl)-3-hydroxy-5-((R)-hydroxy(phenyl)methyl)-4-(4-(trifluoromethyl)phenyl)-1,5-dihydro-2H-pyrrol-2-one] |  | 
18 |  |  | 8 µg/mL (≈ 17.5 µM) | 16 µg/mL (≈ 35 µM) | 16 µg/mL (≈ 35 µM) | CCC1C(c2ccc(C(F)(F)F)cc2)=C(O)C(=O)N1CCCNCCCCNCCCN (stereo not drawn) [Compound 24, 1-(3-((4-((3-Aminopropyl)amino)butyl)amino)propyl)-5-ethyl-3-hydroxy-4-(4-(trifluoromethyl)phenyl)-1,5-dihydro-2H-pyrrol-2-one] |  | 
19 |  |  | 8 µg/mL (≈ 12.8 µM) | 32 µg/mL (≈ 51.4 µM) | 32 µg/mL (≈ 51.4 µM) | CCC1C(c2ccc(C(F)(F)F)cc2)=C(O)C(=O)N1C1CCC(N2C(=O)C(O)=C(c3ccc(C(F)(F)F)cc3)C2CC)CC1 (stereo not drawn) [Compound 28, 1,1′-((1r,4r)-Cyclohexane-1,4-diyl)bis(5-ethyl-3-hydroxy-4-(4-(trifluoromethyl)phenyl)-1,5-dihydro-2H-pyrrol-2-one)] |  | 
